Results as given in patent publication US6391917B1, “Dialkyl ureas as calcitonin mimetics” (ZymoGenetics, Inc., priority 1998, dated 2002).

Target: T1, Human calcitonin receptor (Homo sapiens, UniProt P30988)
T1 construct: expressed in transfected cells; host or cells: BHK-570 (Hollex-1)
T1 sequence (P30988 25-474): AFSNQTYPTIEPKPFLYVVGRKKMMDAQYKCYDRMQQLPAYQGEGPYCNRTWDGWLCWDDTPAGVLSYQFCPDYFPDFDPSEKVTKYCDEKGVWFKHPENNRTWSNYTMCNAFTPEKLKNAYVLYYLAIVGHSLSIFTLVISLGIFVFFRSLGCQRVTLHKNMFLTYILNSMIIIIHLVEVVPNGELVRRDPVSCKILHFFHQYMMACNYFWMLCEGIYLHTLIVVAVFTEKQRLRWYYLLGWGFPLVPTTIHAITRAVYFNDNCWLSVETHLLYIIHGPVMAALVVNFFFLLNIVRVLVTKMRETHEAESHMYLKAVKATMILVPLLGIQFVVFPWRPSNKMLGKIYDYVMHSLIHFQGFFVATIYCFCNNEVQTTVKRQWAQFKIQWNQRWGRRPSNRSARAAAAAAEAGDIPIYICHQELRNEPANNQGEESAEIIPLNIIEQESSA
Assay: CRE-luciferase assay for calcitonin mimetics (Hollex-1)
Assay type: cell-based
Description: CRE-Luciferase Assay Method for Calcitonin Mimetics
Human calcitonin receptor-positive and receptor-negative BHK-570 (Baby Hamster Kidney) cell lines were maintained by serial passage in growth medium (DMEM supplemented with 10% heat-inactivated fetal calf serum (HI-FCS), 2 mM L-glutamine, 1 mM sodium pyruvate, 250 nM MTX, and 1 mg/mL G418). On the day prior to assay, cells were trypsinized, adjusted to 2.5×10^5 cells/ml in growth medium, plated in opaque white Dynatech Microlite microtiter tissue culture plates at 50 μL/well, and grown overnight to confluence (37° C., 5% CO2 atmosphere).
Test substances were prepared in DMSO or 10% DMF at 100 times the final desired assay concentration. […] Controls were included on each plate: untreated wells (basal), […], and 100 nM human calcitonin. DMSO or DMF was included in control wells at a concentration equal to that in test samples (not to exceed a final assay concentration of 2% DMSO or 0.5% DMF, with a preferred maximum of 1% DMSO or 0.1% DMF).
Plates were incubated for 3 to 8 hours (4 hours preferred) at 37° C. in an atmosphere of 5% CO2. Following induction, luciferase activity was measured using a Promega luciferase assay kit (E1500) according to the assay kit protocol (Promega Corp., Madison, Wis.). Briefly, assay medium was removed and cells were washed once with phosphate buffered saline (PBS). After the wash, 25 μl of lysis buffer was added to each well, and the plates were incubated for 15 minutes at room temperature. Fifty microliters of Luciferase Assay Substrate (Promega, Corp.) was added to each well and the plates were transferred to a Labsystems Lumiscan microtiter luminometer (Labsystems Inc., Morton Grove, Ill.). The amount of luminescence (relative light units, RLU) was determined following a 0.1 second/well integration of signal. Basal (uninduced) luciferase signal was subtracted from all measurements, and the luciferase signal induced by test samples was expressed as a percentage of the signal in the calcitonin and forskolin controls. Specificity of the luciferase induction for calcitonin receptor-positive cell lines was determined by comparing the percent control values in the calcitonin receptor-positive line (Hollex-1) to those observed in the calcitonin receptor-negative cell line (KZ10-20-48/Zem 228) and the PTH receptor-positive cell line (KZ10-20-48/PTH-20) described below. Samples inducing a signal over the basal level were selected for further characterization, see Table 1 for examples.

Compound | Luciferase induction (% of maximum luciferase induction produced by CT, 100 nM) (crude compound 6.25 μg/ml) [%] | Luciferase induction (% of maximum luciferase induction produced by CT, 100 nM) (crude compound 12.5 μg/ml) [%] | Luciferase induction (% of maximum luciferase induction produced by CT, 100 nM) (crude compound 25 μg/ml) [%] | Luciferase induction (% of maximum luciferase induction produced by CT, 100 nM) (crude compound 50 μg/ml) [%] | Luciferase induction (% of maximum luciferase induction produced by CT, 100 nM) (crude compound 3.125 μg/ml) [%]
C=CCNC(=O)[C@@H](Cc1ccc(I)cc1)NC(=O)Nc1cc(C(C)(C)C)ccc1C(C)(C)C [628-034] | 6.89 | 25.02 | 33.86 | 38.68 | 
C=CCNC(=O)[C@@H](Cc1ccccc1)NC(=O)Nc1cc(C(C)(C)C)ccc1C(C)(C)C [628-013] | 17.98 | 51.62 | 69.62 | 64.26 | 3.51
CC(C)(C)c1ccc(C(C)(C)C)c(NC(=O)N[C@H](Cc2ccc3ccccc3c2)C(=O)NCc2ccccc2)c1 [628-045] | 38.73 | 42.49 | 44.51 | 40.62 | 20.19
CC(C)(C)c1ccc(C(C)(C)C)c(NC(=O)N[C@H](Cc2ccc(F)cc2)C(=O)NCc2ccc3ccccc3c2)c1 [628-053] | 11.89 | 32.31 | 41.8 | 40.14 | 3.29
CCNC(=O)[C@@H](Cc1ccc(Cl)cc1)NC(=O)Nc1cc(C(C)(C)C)ccc1C(C)(C)C [628-022] | 3.26 | 17.85 | 41.52 | 46.98 | 2.08
CCNC(=O)C(Cc1ccc(OCC)cc1)NC(=O)Nc1cc(C(C)(C)C)ccc1C(C)(C)C (stereo not drawn) [628-007] | 10.61 | 31.97 | 55.34 | 31.73 | 0.76
CC(C)(C)c1ccc(C(C)(C)C)c(NC(=O)N[C@H](Cc2ccc(Cl)cc2)C(=O)NCc2ccc3ccccc3c2)c1 [628-052] | 23.59 | 36.63 | 40.21 | 38.27 | 9.57
C=CCNC(=O)[C@H](NC(=O)Nc1cc(C(C)(C)C)ccc1C(C)(C)C)c1ccccc1 [628-036] | 4.12 | 6.43 | 8.0 | 10.38 | 
CC(C)(C)c1ccc(C(C)(C)C)c(NC(=O)N[C@H](Cc2ccc(F)cc2)C(=O)NCc2ccccc2)c1 [628-043] | 34.53 | 42.06 | 46.24 | 47.95 | 6.48
CC(C)(C)c1ccc(C(C)(C)C)c(NC(=O)N[C@H](Cc2ccc(I)cc2)C(=O)NCc2ccc3ccccc3c2)c1 [628-054] | 27.05 | 42.54 | 47.47 | 54.86 | 10.73
